US20240345054A1, “Method of Screening Antioxidants” (Johnson & Johnson Consumer Inc., priority 2021, published 2024)

Experiments:
[1] = UVA-induced squalene oxidation in vitro model, MDA formed measured by fluorometric TBARS assay; assay type: biochemical; settings: 20 J/cm^2 UVA; for Efficacy (percentage difference in MDA generation compared to the untreated, UV-stimulated control sample): 0.12 nM protoporphyrin IX, negative = reduction
Method: The antioxidant test model described above was used to test efficacy of various antioxidants in reducing the oxidation of squalene in conditions reflecting approximately two (2) hours of intense sun exposure. The target Oxidizable Component was squalene, in an amount of 30 μL (9.7% w/w) per sample. The solvents selected were dimethyl sulfoxide, propylene glycol (PG), and 1-butanol, in amounts of 8.3% (v/v), 8.3% (v/v), and 83.5% (v/v) per sample, respectively. The tests further included a biological metabolite, specifically protoporphyrin IX, in an amount of 0.12 nM per sample. The exposure to UVA radiation, using a solar simulator (NewportR), Oriel Instruments U.S.A., model 91293-1000), was 20 J/cm^2, as measured by a calibrated UVA detector probe (Solar Light Company, Inc., model PMA2110-UVS) connected to a calibrated simulator controller (Solar Light Company, Inc., model DCS-2).
To prepare the antioxidant test solutions, the antioxidants were first dissolved (via vortexing and gentle heating if necessary) in a volume of dimethyl sulfoxide (DMSO) that achieved a target concentration for the predetermined use level as outlined in Table 1.
The antioxidant test solutions were then diluted by 50% with propylene glycol (PG). […] The bulk volume was vortexed immediately prior to pipetting 5 replicates of 300 μL samples into the wells of a 24-well plate. The plates were then exposed to the UVA radiation until the target UVA dose was achieved (20 J/cm^2), after which the plate was removed and the amount of MDA formed by lipid peroxidation was analyzed. Care was taken during the experiment to protect the samples from extraneous light oxidation throughout the solution preparation, sample plating, and after the UVA exposure prior to MDA quantitation.
The determination of the amount of MDA formed was performed by fluorometric analysis using a commercial TBARS assay kit (Sigma Aldrich, catalogue #MAK085) that reacts thiobarbituric acid with the MDA present in the sample to form a fluorometric product (λex=532/λem=553 nm), which can be easily quantitated with a monochromator-based microplate reader (Tecan Infinite M1000 Pro) and the accompanying software (Tecan i-control). […] The magnitude of efficacy for each sample, expressed as percentage reduction from the untreated control, was averaged for each antioxidant treatment.
In Table 2 below, “X” means that there was no significant reduction (p<0.05) in the MDA formation as compared to the UV-stimulated control. The % of concentration of the active in the formula tested is identified as “% conc”.

[2] = 1% in oil-in-water emulsion, topical twice daily 2 mg/cm^2 for 7 days on the back, human subjects, 10 J/cm^2 UVA; significant (p<0.05); cited from earlier work
[3] = 0.05% conc of active in formula

Structure (SMILES): CC(C)(CO)[C@H](O)C(=O)NCCCO [D-Panthenol (Provitamin B5), D-Panthenol]
- Efficacy (percentage difference in MDA generation compared to the untreated, UV-stimulated control sample) ([1]; 0.25% conc of active in formula): −21%
- Efficacy (percentage difference in MDA generation compared to the untreated, UV-stimulated control sample) ([1]; 0.5% conc of active in formula): −18%

Structure (SMILES): Cc1c(C)c2c(c(C)c1O)CC[C@@](C)(CCC[C@H](C)CCC[C@H](C)CCCC(C)C)O2 [Vitamin E (alpha-tocopherol), alpha-tocopherol]
- Efficacy (percentage difference in MDA generation compared to the untreated, UV-stimulated control sample) ([1]; 0.1% conc of active in formula): −61%
- Efficacy (percentage difference in MDA generation compared to the untreated, UV-stimulated control sample) ([1]; 0.5% conc of active in formula): −78%
- Efficacy (percentage difference in MDA generation compared to the untreated, UV-stimulated control sample) ([1]; 1% conc of active in formula): −81%

Structure (SMILES): NC(=O)c1cccnc1 [Niacinamide]
- Efficacy (percentage difference in MDA generation compared to the untreated, UV-stimulated control sample) ([1]; 0.5% conc of active in formula): 58%

Structure (SMILES): O=C(O)C(O)c1ccccc1 (centres unmarked) [Mandelic acid]
- Efficacy (percentage difference in MDA generation compared to the untreated, UV-stimulated control sample) ([1]; 2% conc of active in formula): 81%
- Efficacy (percentage difference in MDA generation compared to the untreated, UV-stimulated control sample) ([1]; 3% conc of active in formula): 69%

Structure (SMILES): COc1cc(/C=C/C(=O)O)ccc1O [Ferulic acid]
- Efficacy (percentage difference in MDA generation compared to the untreated, UV-stimulated control sample) ([1]; 0.01% conc of active in formula): −47%
- Efficacy (percentage difference in MDA generation compared to the untreated, UV-stimulated control sample) [1, 3]: −41%
- Efficacy (percentage difference in MDA generation compared to the untreated, UV-stimulated control sample) ([1]; 0.1% conc of active in formula): −39%

Structure (SMILES): O=C(O)/C=C/c1ccc(O)cc1 [p-coumeric acid]
- Efficacy (percentage difference in MDA generation compared to the untreated, UV-stimulated control sample) [1, 3]: −48%
- Efficacy (percentage difference in MDA generation compared to the untreated, UV-stimulated control sample) ([1]; 0.1% conc of active in formula): −55%

Structure (SMILES): CC(=O)Oc1c(C)c(C)c2c(c1C)CCC(C)(CCC[C@H](C)CCC[C@H](C)CCCC(C)C)O2 (some centres unmarked) [Vitamin E acetate]
- Efficacy (percentage difference in MDA generation compared to the untreated, UV-stimulated control sample) ([1]; 0.1% conc of active in formula): −36%

Structure (SMILES): O=c1cc(-c2ccc(O)cc2)oc2cc(O)cc(O)c12 [Apigenin]
- Efficacy (percentage difference in MDA generation compared to the untreated, UV-stimulated control sample) ([1]; 0.5% conc of active in formula): −35%

Structure (SMILES): O=C1O[C@H]([C@@H](O)CO)C([O-])=C1OP(=O)([O-])[O-].[Na+].[Na+].[Na+] [sodium ascorbyl phosphate]
- reduction of UVA-induced squalene oxidation compared to a placebo formulation [2]: 30%
- Efficacy (percentage difference in MDA generation compared to the untreated, UV-stimulated control sample) ([1]; 1% conc of active in formula): −41%
- reduction of UV-induced squalene oxidation as compared to the control sample ([1]; 1%, in vitro model): 41%

Structure (SMILES): O=C(O)CO [Glycolic acid]
- Efficacy (percentage difference in MDA generation compared to the untreated, UV-stimulated control sample) ([1]; 3% conc of active in formula): −25%

Structure (SMILES): Cc1cc(C(C)(C)C)c(O)c(C(C)(C)C)c1 [Butylated hydroxytoluene (BHT), Butylated hydroxytoluene]
- Efficacy (percentage difference in MDA generation compared to the untreated, UV-stimulated control sample) ([1]; 0.035% conc of active in formula): −54%
